Read-outs that look alike come from different tables or passages of the source.
Assay: Plasma concentration and urinary excretion of penem in dogs, capsules with glutathione (Example 7)
Format: in vivo
Settings: dog, po, 75 mg; for AUC at 4 h / Cmax: plasma
Method: Namely, the penemcarboxylate and glutathione were mixed in amounts of 75 mg (titer) and 75, 15 or 3.75 mg, respectively, per capsule. The resultant mixed powder was filled in a capsule. Capsules were prepared in the manner described above.

## C[C@@H](O)[C@H]1C(=O)N2C(C(=O)O)=C([C@H]3CCCO3)S[C@H]12 [sodium (1'R,2"R,5R,6S)-6-(1'-hydroxyethyl)-2-(2"-tetrahydrofuranyl)penem-3-carboxylate 2.5 hydrate]
Oral capsule 75 mg (titer), penem:glutathione molar ratio 1.1:1
  AUC at 4 h: 33700 ng·h/mL
Oral capsule 75 mg (titer), penem:glutathione molar ratio 1.1:1, read-out: Highest concentration in plasma
  Cmax: 22700 ng/mL
oral, single administration (penem alone), read-out: Highest concentration in plasma
  Cmax: 11600 ng/mL
Single administration (penem alone)
  AUC at 4 h: 17700 ng·h/mL
urine, oral, single administration (penem alone), up to 24 hours, read-out: Excretion into urine
  dose excreted at 24 h: 16.7%

— patent US5354748A, “Oral antibacterial compositions and method for the improvement of gastrointestinal absorption of penem or carbapenem antibiotics” (Suntory Limited, priority 1991, dated 1994)
